We go through eight compounds from ChEMBL document CHEMBL5029187 (J Med Chem, 2021).

A word on the IC50: it is the concentration that inhibits the measured activity by half.

A short description of data set [1]: Prodrug activation assessed as increase in fluorescence intensity in presence of GSH at 10 uM incubated for 60 mins. Conditions: 1 h.
The test system of another data set is A549. The experiment in a line: Cytotoxicity against human A549 cells assessed as reduction in cell viability incubated for 48 hrs by MTT assay. The class given is functional, cell-based. Conditions: A549, 48 h. For orientation: Tetrazolium assays rely on reduction of a dye to a coloured formazan, in cell work by metabolically active cells.
The next data set relates to SMMC-7721. The experiment in a line: Cytotoxicity against human SMMC-7721 cells assessed as reduction in cell viability incubated for 48 hrs by MTT assay. The class given is functional, cell-based. Conditions: SMMC-7721, 48 h.
Data set [2] relates to HepG2. The experiment in a line: Cytotoxicity against human HepG2 cells assessed as reduction in cell viability incubated for 48 hrs by MTT assay. The class given is functional, cell-based. The note with it: HepG2, 48 h.
Data set [3] can be described thus: Prodrug activation in TE buffer assessed as alterations in fluorescence intensity at 10 uM incubated for 60 mins. The note with it: 1 h.
In a further data set the test system is HeLa. The data set can be described thus: Cytotoxicity against human HeLa cells assessed as reduction in cell viability incubated for 48 hrs by MTT assay. The class given is functional, cell-based.
Data set [4] is described as follows: Prodrug activation assessed as fluorescence intensity in presence of 5 mM GSH at 100 uM incubated for 12 hrs further incubated with selenol probe Probe 1 followed by addition of 1 mM GSH measured after 4 mins. The note with it: 5000 µM.
Data set [5] is described as follows: Prodrug release in TE buffer assessed as increase in camptothecin level at 10 uM measured within 10 mins in the presence of GSH by HPLC analysis. The class given is ADME.
Data set [6] in a line: Prodrug activation assessed as increase in fluorescence intensity in presence of Cys at 10 uM incubated for 15 mins by HPLC analysis. The note with it: 0.25 h.
The subject of data set [7] is HepG2. The experiment in a line: Antitumor activity against human HepG2 cells xenografted BALB/c mouse assessed as reduction in tumor growth at 30 mg/kg, ip administered for once every 3 days measured after 15 days. It is filed as functional, organism-based. The note with it: time 15.0 day. In general terms: In xenograft studies the graft and the host belong to different species.

Data set [8] is described as follows: Toxicity in human HepG2 cells xenografted BALB/c mouse assessed as reduction in body weight at 30 mg/kg, ip administered for once every 3 days measured after 15 days. It is filed as organism-based. Details: scale not given: the % may be the effect or the level left. Conditions: in vivo, 360 h, time 15 day.
Data set [9] deals with HepG2. The data set can be described thus: Induction of ROS generation in human HepG2 cells assessed as increase in ROS accumulation for 6 hrs by DCFH-DA staining based fluorescence assay. The class given is functional, cell-based. Conditions: dose 2-5 µM.
Data set [10] in a line: Prodrug activation assessed as production of selenol intermediate concentration in the presence of GSH incubated with Probe 1.
Data set [11] has as its system HepG2. The experiment in a line: Induction of apoptosis in human HepG2 cells assessed as increase in apoptotic cells for 48 hrs by FITC-annexin V/PI double staining based flow cytometry. The class given is functional, cell-based. For orientation: In flow cytometry, cells or beads pass a laser one at a time.
Data set [12] deals with HepG2. The experiment in a line: Inhibition of redox balance in human HepG2 cells assessed as reduction in GSH/GSSG ratio incubated for 24 hrs. The class given is functional, cell-based.
The nature of data set [13]: Toxicity in BALB/c mouse xenografted with human HepG2 cells assessed as death at 45 mg/kg, ip administered for once every 3 days measured after 15 days. The note with it: in vivo, 360 h, time 15 day. The class given is organism-based.
The nature of data set [14]: Prodrug activation assessed as changes in fluorescence intensity in presence of GSH at 100 uM incubated for 12 hrs further incubated with selenol probe Probe 1.
A short description of data set [15]: Prodrug activation assessed as increase in ferro cytochrome c production in presence of GSH and SOD by cytochrome c reduction assay.
Data set [16] in a line: Prodrug activation in TE buffer assessed as fold change in fluorescence intensity at 10 uM in presence of GSH.
Data set [17] can be described thus: GSH reactivity assessed as oxidation of GSH to GSSG at 10 uM measured after 60 mins by HPLC analysis. The class given is ADME. The note with it: 1 h.
The nature of data set [18]: Prodrug activation in human HepG2 cells assessed as increase in camptothecin level by measuring fluorescence level at 10 uM by fluorescence microscopy. It is filed as cell-based. Conditions: hepg2, 10 µM, TDE = time-dependent effect, time 15-90 min.
Data set [19] concerns HepG2. The data set can be described thus: Inhibition of redox balance in human HepG2 cells assessed as reduction in cellular thiols incubated for 24 hrs. It is filed as functional, cell-based.
Data set [20] in a line: Antitumor activity against human HepG2 cells xenografted BALB/c mouse assessed as reduction in tumor weight at 30 mg/kg, ip administered for once every 3 days measured after 15 days. The class given is functional. Details: scale not given: the % may be the effect or the level left. The note with it: time 15 day.
Data set [21] concerns HepG2. The experiment in a line: Cytotoxicity against human HepG2 cells assessed as reduction in cell viability in presence of H2O2 incubated for 48 hrs by MTT assay. It is filed as functional, cell-based.
Data set [22] in a line: Drug uptake in human HepG2 cells increase in fluorescence level at 10 uM by fluorescence microscopy. The note with it: hepg2, 10 µM, TDE = time-dependent effect. The class given is ADME, cell-based.

Active and inactive are the calls of the source. No cut-off for these calls is given here.

With `CC[C@@]1(OC(=O)NC2C[Se][Se]C2)C(=O)OCc2c1cc1n(c2=O)Cc2cc3ccccc3nc2-1`, the Drug metabolism result in [1] and in data set [3] was “Metabolite_Notdetected” throughout. The IC50 in the data set on A549, in the data set with SMMC-7721, in the data set on HepG2 [2] and with HeLa was over 10 µM in each case.

Regarding `CC[C@@]1(OC(=O)OC2(CO)C[Se][Se]C2)C(=O)OCc2c1cc1n(c2=O)Cc2cc3ccccc3nc2-1`, the Drug metabolism entry was “Metabolite_Detected” in [1] and “Metabolite_Notdetected” in data set [3]. Further, the IC50 with A549 was over 10 µM; in the data set on SMMC-7721 it was over 10 µM; in the data set with HepG2 [2], 6.02 µM; in the data set on HeLa, 9.17 µM.

Consider `CC[C@@]1(OC(=O)OCC[Se][Se]CCO)C(=O)OCc2c1cc1n(c2=O)Cc2cc3ccccc3nc2-1`, for which the Drug metabolism result in data set [4] is “Metabolite_Detected”; in data set [6], “Metabolite_Detected”; in data set [10] it was 104.4 µM; in [15], “Not Active”; in [17] it was “Metabolite_Detected”; in data set [18], “Tde”. For the same compound, the Drug metabolism entry in [3] is “Metabolite_Notdetected”. The Activity in data set [5] is reported as 90%; in [8], under 10%; in [13], “Toxic”; in [14], “Not Active”; in data set [20] it was 75%. In addition, the outcome with HepG2 [7], in the data set on HepG2 [9] and in the data set with HepG2 [11] was Active. For the same compound, the inhibition result in the data set with HepG2 [12] and in the data set with HepG2 [19] was “Active” throughout. Besides, the “fold change (FC)” value in data set [16] is 10. The IC50 in the data set on A549 is 3.3 µM; in the data set on SMMC-7721 it was 6.4 µM; in the data set with HepG2 [2] it was 2.54 µM; in the data set on HeLa, 2.56 µM.

For `CC[C@@]1(OC(=O)OCCCCCCO)C(=O)OCc2c1cc1n(c2=O)Cc2cc3ccccc3nc2-1`, the IC50 in the data set with A549, in the data set on SMMC-7721, in the data set with HepG2 [2] and in the data set on HeLa was over 10 µM each time.

`CC[C@@]1(O)C(=O)OCc2c1cc1n(c2=O)Cc2cc3ccccc3nc2-1` [CAMPTOTHECIN]: the outcome in the data set with HepG2 [7] and with HepG2 [21] was Active. For the same compound, the Activity was under 10% in data set [8], “Toxic” in [13] and 53% in [20]. The Drug uptake result in data set [22] is recorded as “Tde”. In addition, the IC50 with SMMC-7721 was over 10 µM; with HepG2 [2], 3.5 µM; in the data set with HeLa, 8.28 µM.

For `CC[C@@]1(OC(=O)NC2CCCC2)C(=O)OCc2c1cc1n(c2=O)Cc2cc3ccccc3nc2-1`, the IC50 with A549, in the data set with SMMC-7721, with HepG2 [2] and in the data set on HeLa was over 10 µM each time.

As for `CC[C@@]1(OC(=O)OCCSSCCO)C(=O)OCc2c1cc1n(c2=O)Cc2cc3ccccc3nc2-1`, in data set [5], the Drug metabolism result is listed as “Metabolite_Notdetected”. The IC50 with A549 was over 10 µM; with SMMC-7721, over 10 µM; in the data set with HepG2 [2], 4.86 µM; in the data set on HeLa it was 9.62 µM.

For `CC[C@@]1(OC(=O)OC2CCCC2)C(=O)OCc2c1cc1n(c2=O)Cc2cc3ccccc3nc2-1`, the IC50 with A549, with SMMC-7721, with HepG2 [2] and in the data set on HeLa was over 10 µM each time.
